Test results reported in patent publication US7906549B2, “Aminocarboxylic acid derivative and medicinal use thereof” (Ono Pharmaceutical Co., Ltd., priority 2004, dated 2011).
Structures can show the parent of a compound that is named as a salt.

Columns and labels:
lymphocyte in blood = experiment: Counting the number of lymphocyte in blood after oral administration; type: in vivo, male BALB/c mice or male Sprague-Dawley rats; details: Mus musculus, 24 hours after the administration, read-out: ED50 (dose required for lowering the blood cell count to 50%)
Experimental: Test compounds were orally administered to male BALB/c mice or male Sprague-Dawley rats (Charles River Laboratories, Japan, Inc., 6-week-old at the time of use). 4 to 72 hours after the administration, the blood was collected from the aorta abdominalis under ether anesthesia. The number of the total leucocyte count, the lymphocyte count, the neutrophil count, the erythrocyte count, the platelet count in blood and the hematocrit value were measured with a multipurpose automatic blood cell counter (SF-3000, manufactured by Sysmex Corporation). Evaluation was made by setting the average blood cell count in a vehicle-administered group (vehicle group) as 100% and calculating the percentage of vehicle from the average blood cell count of each test compound-administered group.

Human EDG-1 = biological target: T1, Human EDG-1 (Homo sapiens, UniProt P21453); experiment: Agonistic activity against EDG by monitoring changes in intracellular calcium ion [Ca^2+]i concentration; type: cell-based; details: Human EDG-1 overexpressing CHO cells; read-out: EC50 (increase in intracellular calcium ion concentration)
T1 construct: expressed in transfected cells; host or cells: CHO cells
T1 sequence (P21453 whole entry): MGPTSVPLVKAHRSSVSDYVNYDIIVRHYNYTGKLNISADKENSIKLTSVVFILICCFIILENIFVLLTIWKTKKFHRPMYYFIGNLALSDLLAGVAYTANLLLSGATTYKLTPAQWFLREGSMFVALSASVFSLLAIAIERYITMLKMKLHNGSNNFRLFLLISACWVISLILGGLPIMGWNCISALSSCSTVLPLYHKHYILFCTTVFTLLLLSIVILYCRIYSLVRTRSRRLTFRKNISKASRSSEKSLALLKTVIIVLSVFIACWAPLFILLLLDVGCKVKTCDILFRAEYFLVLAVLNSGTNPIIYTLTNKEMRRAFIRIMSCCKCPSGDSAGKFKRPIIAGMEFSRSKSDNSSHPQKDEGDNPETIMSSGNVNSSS
Experimental: Human EDG-1, EDG-3, EDG-5, or EDG-8 gene overexpressing CHO cells were cultured in Ham's F12 medium (manufactured by GibcoBRL) containing 10% FBS (fetal bovine serum), penicillin/streptomycin, and blasticidin (5 μg/ml). The cultured cells were incubated in a 5 μM Fura2-AM solution (Ham's F12 medium containing 10% of FBS, 20 mM HEPES buffer (pH7.4), and 2.5 mM probenecid) at 37° C. for 60 minutes. After washing once with Hanks solution containing 20 mM HEPES buffer (pH7.4) and 2.5 mM probenecid, the plate was soaked in the same solution. Then, the plate was set on a fluorescent drug screening system (FDSS 6000; Hamamatsu Photonics K. K.) and the intracellular calcium ion concentration was measured without stimulation for 30 seconds. A test compound (final concentration: 1 nM to 10 μM, dimethylsulfoxide (DMSO) solution) was added and S1P (final concentration: 100 nM) was added 5 minutes thereafter. Then, the increase in the intracellular calcium ion concentration was measured before and after the addition of S1P at intervals of 3 seconds (excitation wavelength: 340 nm and 380 nm, fluorescence wavelength: 500 nm).
The agonistic activity of the compound against each EDG was determined by using the peak value due to S1P-stimulation in a well containing DMSO as a substitute for the evaluated compound as a control value (A), comparing the value […] the addition of the evaluated compound with the increased value (B) in the fluorescent ratio after the addition, and calculating the increase ratio (%) in the intracellular calcium ion [Ca^2+]i concentration as: increase ratio (%)=(B/A)×100. Increase ratios of the compound at individual concentrations were determined and the EC50 value was calculated.

[1] = tested on: experimental allergic encephalomyelitis; experiment: Experimental allergic encephalomyelitis (EAE) model, Case 1: administration from the day of sensitization; type: in vivo, Female LEW/CrlCrlj rats; details: from the day of sensitization to Day 19
Experimental: (§1) Killed Mycobacterium tuberculosis (M. tuberculosis H37 Ra, Difco, Cat No. 231141) was suspended in distilled water for injection to dissolve MBP (Myelin basic protein, SIGMA, Cat No. M-2295) (Killed Mycobacteriumtuberculosis: 1000 μg/mL, MBP: 60 μg/mL). This solution was mixed with an equivalent amount of FCA (Freund Complete Adjuvant, CHEMICON, Cat No. AR001) to thereby prepare an emulsion. Female LEW/CrlCrlj rats (Charles River Laboratories, Japan, Inc., 6-week-old at the time of purchase, 7-week-old at the time of sensitization) were antigen-sensitized by a single subcutaneous injection (0.1 mL/rat) of the emulsion in the right foot pad under slight ether anesthesia, thereby inducing the symptoms of experimental allergic encephalomyelitis. The day of sensitization was defined as Day 0.
The EAE symptoms of the rats were observed every day from Day 8 to Day 20, and were evaluated based on the following criteria: Tail relaxation: 1 point, Incomplete paralysis of hind legs: 1 point, Complete paralysis of hind legs: another 1 point, and Incontinentia: 1 point. The maximum score was 4 points. Death was 5 points.
Using a 0.5% MC solution (0.5 w/v % Methyl Cellulose 400cP Solution, Wako Pure Chemical Industries, Ltd., Cat No. 133-14255) as a vehicle, the test compound was forcibly administered orally in an amount of 5 mL/kg once a day from […] the day of sensitization to Day 19. To a control group, the same amount of 0.5% MC solution was forcibly administered orally once a day for the same period. The body weight was measured every day from Day 0 and the dose was determined based on the body weight of each day.

[2] = tested on: experimental allergic encephalomyelitis; experiment: Experimental allergic encephalomyelitis (EAE) model, Case 2: administration from immediately before development of symptoms; type: in vivo, Female LEW/CrlCrlj rats; details: oral dose of 0.3 mg/kg once a day, from Day 9 to Day 19
Experimental: as §1, with “Mycobacterium tuberculosis:” for “Mycobacteriumtuberculosis:”, “The day of sensitization was defined as Day 0.” left out
The EAE symptoms of the rats were observed every day from Day 7 to Day 20, and evaluated based on the following criteria: Tail relaxation: 1 point, Incomplete paralysis of hind legs: 1 point, Complete paralysis of hind legs: another 1 point, and Incontinentia: 1 point. […]
Using 0.5% MC solution (0.5 w/v % Methyl Cellulose 400cP Solution, Wako Pure Chemical Industries, Ltd., Cat No. 133-14255) as a vehicle, the test compound was forcibly administered orally in an amount of 5 mL/kg once a day from Day 9 […] sensitization to Day 19. […] The body weight was measured every day from Day 9 and the dose was determined based on the body weight of each day.

heart rate = experiment: Evaluation of cardiotoxicity (bradycardia); type: in vivo; details: rabbits, intravenously administered, dose of 0.01 mg/kg
Excerpt: A catheter was inserted into the jugular vein and carotid artery (or the femoral vein and femoral artery) of mammals (e.g., SD rat and a rabbit). The tip of the arterial cannula was connected to a pressure transducer (DX-100, manufactured by NIHON KOHDEN CORP.), thereby measuring blood pressure through a strain pressure amplifier (AP-641G, manufactured by NIHON KOHDEN CORP.) and measuring heart rate through an instantaneous heart rate measuring unit (AT-601G, manufactured by NIHON KOHDEN CORP.), respectively. Alternatively, heart rate was measured with an electrocardiogram. Under anesthesia or under awareness after arousal was induced, the test compound was administered intravenously or administered orally. Then, changes in blood pressure and heart rate were measured.

[3] = oral dose of 0.3 mg/kg once a day

Row | SMILES | EC50 (Human EDG-1) [nM] | melting point [°C] | also measured
1 | O=C(O)CCN1CCc2c([nH]c3cc(OCCCc4ccccc4)ccc23)C1 [Example 18, 3-[7-(3-phenylpropoxy)-1,3,4,9-tetrahydro-2H-β-carbolin-2-yl]propanoic acid trifluoroacetate] | 662 | – | –
2 | CC1=C(CN2CC(C(=O)O)C2)CCc2cc(OCc3ccc(C(F)(F)F)cc3C(F)(F)F)ccc21 [Example 37-5, 1-[(6-{[2,4-bis(trifluoromethyl)benzyl]oxy}-1-methyl-3,4-dihydro-2-naphthalenyl)methyl]-3-azetidinecarboxylic acid] | – | – | inhibition of the development of EAE symptoms [1, 3]: almost completely inhibited; inhibition of the development of EAE symptoms [2]: had the effect of inhibiting the development of symptoms
3 | CC1=C(CN2CC(C(=O)O)C2)CCc2cc(OC[C@@H](C)Cc3ccc(Cl)cc3)ccc21 [Example 7-10, 1-[(6-{[(2S)-3-(4-chlorophenyl)-2-methylpropyl]oxy}-1-methyl-3,4-dihydro-2-naphthalenyl)methyl]-3-azetidinecarboxylic acid] | – | 148.6 to 148.9 | –
4 | CC1=C(CN2CC(C(=O)O)C2)CCc2cc(OC[C@@H](C)Cc3ccc(F)cc3)ccc21 [Example 7-4, 1-[(6-{[(2S)-3-(4-fluorophenyl)-2-methylpropyl]oxy}-1-methyl-3,4-dihydro-2-naphthalenyl)methyl]-3-azetidinecarboxylic acid] | – | 142.5 to 143.6 | –
5 | CC1=C(CN2CC(C(=O)O)C2)CCc2cc(OCCCc3ccc(Cl)cc3)ccc21 [Example 7-1, 1-({6-[3-(4-chlorophenyl)propoxy]-1-methyl-3,4-dihydro-2-naphthalenyl}methyl)-3-azetidinecarboxylic acid] | – | 165.4 to 166.9 | –
6 | CC(C)Cc1ccc(-c2nc(-c3ccc4c(c3)CCN(CCC(=O)O)C4)no2)cc1 [Example 13-4, 3-[6-[5-(4-isobutylphenyl)-1,2,4-oxadiazol-3-yl]-3,4-dihydro-2(1H)-isoquinolinyl]propanoic acid trifluoroacetate] | 41 | – | –
7 | O=C(O)CCN1CC=C(c2ccc(OCCCc3ccc(Cl)cc3)cc2)CC1 [Example 29-1, 3-[4-{4-[3-(4-chlorophenyl)propoxy]phenyl}-3,6-dihydropyridin-1(2H)-yl]propanoic acid trifluoroacetate] | 133 | – | –

More lines, main results first:

Row | EC50 (Human EDG-1) [nM] | melting point [°C] | SMILES | also measured
8 | 0.7 | – | O=C(O)C1CN(CC2=C(Cl)c3ccc(OCCCC4CCCCC4)cc3CC2)C1 [Example 27-7, 1-{[1-chloro-6-(3-cyclohexylpropoxy)-3,4-dihydronaphthalen-2-yl]methyl}azetidine-3-carboxylic acid] | ED50 (lymphocyte in blood): 1.6 mg/kg
9 | 0.7 | – | CCCc1ccc(COc2ccc3c(c2)CCC(CN2CC(C(=O)O)C2)=C3Cl)c(OC)c1 [Example 37-6, 1-({1-chloro-6-[(2-methoxy-4-propylbenzyl)oxy]-3,4-dihydro-2-naphthalenyl}methyl)-3-azetidinecarboxylic acid] | –
10 | 1 | – | CCCc1ccc(COc2ccc3c(c2)CCC(CN2CC(C(=O)O)C2)=C3C)c(OC)c1 [Example 37, 1-({6-[(2-methoxy-4-propylbenzyl)oxy]-1-methyl-3,4-dihydro-2-naphthalenyl}methyl)-3-azetidinecarboxylic acid] | ED50 (lymphocyte in blood): 0.029 mg/kg; inhibition of the development of EAE symptoms ([1]; oral dose of 0.1 mg/kg once a day): almost completely inhibited; inhibition of the development of EAE symptoms [1, 3]: completely inhibited; inhibition of the development of EAE symptoms [2]: almost completely inhibited; decrease of heart rate (heart rate): ≤ 20%
